The source of these data is patent US8658661B2, “Oxadiazole inhibitors of leukotriene production” (Boehringer Ingelheim International GmbH, priority 2010, dated 2014).

As a reminder, the IC50 is the concentration at which inhibition is half-maximal.

Each structure is given as a SMILES string.

In experiment [1] the test system is synthesis of LTB4 in human whole blood. The experiment in a line: Human whole blood assay (inhibition of LTB4 synthesis, calcimycin stimulated). The class given is cell-based. To be noted: heparinized human whole blood, calcimycin 20 μM, plasma LTB4. The gist of the method:
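Readout: plasma LTB4 by antibody-based HTRF. Compound added to heparinized human whole blood, 15 min 37° C; calcimycin 20 μM final (PBS pH 7.4), 30 min 37° C; spun 1500×g 5 min, plasma taken.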

In experiment [2] the target is T1, recombinant human FLAP protein (Homo sapiens, UniProt P20292).
T1 construct: made in house; host or cells: Sf9 insect cells (100,000×g membrane pellet used)
T1 sequence (P20292 1-161): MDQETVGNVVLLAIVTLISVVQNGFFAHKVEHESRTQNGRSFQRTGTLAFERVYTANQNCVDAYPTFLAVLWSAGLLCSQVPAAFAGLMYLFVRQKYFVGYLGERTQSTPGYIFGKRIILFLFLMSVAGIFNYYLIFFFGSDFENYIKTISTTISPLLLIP
Description: FLAP binding assay (SPA, displacement of [125I]L-691,831). Particulars: membranes of sf9 cells expressing recombinant human FLAP; [125I]L-691,831 probe; read-out: FLAP binding IC50. The gist of the method:
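Membranes from sf9 cells expressing human FLAP in pH 7.5 Tris buffer (MgCl2, EDTA, PMSF). Non-specific binding defined with 10 μM cold L-691,831.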

For `CC(c1ccc(-c2cnc(N)nc2)cc1)(c1noc(N2CCC(S(C)(=O)=O)CC2)n1)C1CC1` (stereo not shown) [Example 259, 5-(4-{1-Cyclopropyl-1-[5-(4-methanesulfonyl-piperidin-1-yl)-[1,2,4]oxadiazol-3-yl]-ethyl}-phenyl)-pyrimidin-2-ylamine], the IC50 worked out at 0.27 µM in experiment [1] and 0.016 µM in experiment [2].
For `CC(C)C(C)(c1ccc(-c2cnc(N)nc2)cc1)c1noc(N(C)CCN(C)C)n1` (stereo not shown) [Example 260, N-(3-{1-[4-(2-Amino-pyrimidin-5-yl)-phenyl]-1,2-dimethyl-propyl}-[1,2,4]oxadiazol-5-yl)-N,N′,N′-trimethyl-ethane-1,2-diamine] the same measures were 0.9 µM and 0.094 µM.
For `CC(C)C(C)(c1ccc(-c2cnc(N)nc2)cc1)c1noc(N2CCN(C(C)(C)C)CC2)n1` (stereo not shown) [Example 261, 5-(4-{1-[5-(4-tert-Butyl-piperazin-1-yl)-[1,2,4]oxadiazol-3-yl]-1,2-dimethyl-propyl}-phenyl)-pyrimidin-2-ylamine] the same measures were 0.19 µM and 0.011 µM.
On to `C[C@@](c1ccc(-c2ccc(N)nc2)cc1)(c1noc(-c2cnn(C3COC3)c2)n1)C1CC1` [Example 263, 5-(4-{(R)-1-Cyclopropyl-1-[5-(1-oxetan-3-yl-1H-pyrazol-4-yl)-[1,2,4]oxadiazol-3-yl]-ethyl}-phenyl)-pyridin-2-ylamine], for which the IC50 in experiment [1] was 0.021 µM; in experiment [2], 0.0035 µM.
For `CC(C)N1CCN(c2nc(C(C)(c3ccc(-c4cnc(N)nc4)cc3)C(C)C)no2)CC1` (stereo not shown) [Example 264, 5-(4-{1-[5-(4-Isopropyl-piperazin-1-yl)-[1,2,4]oxadiazol-3-yl]-1,2-dimethyl-propyl}-phenyl)-pyrimidin-2-ylamine] the same measures were 0.12 µM and 0.011 µM.
Take `C[C@@](c1ccc(-c2cnc(N)cn2)cc1)(c1noc(-c2cnn(C3COC3)c2)n1)C1CC1` [Example 265, 5-(4-{(R)-1-Cyclopropyl-1-[5-(1-oxetan-3-yl-1H-pyrazol-4-yl)-[1,2,4]oxadiazol-3-yl]-ethyl}-phenyl)-pyrazin-2-ylamine; compound with trifluoro-acetic acid]: the IC50 in experiment [1] was determined as 0.022 µM; in experiment [2] it was 0.0051 µM.
Consider `CC(C)C(C)(c1ccc(-c2cnc(N)nc2)cc1)c1noc(N2CCN(C3CC3)CC2)n1` (stereo not shown) [Example 266, 5-(4-{1-[5-(4-Cyclopropyl-piperazin-1-yl)-[1,2,4]oxadiazol-3-yl]-1,2-dimethyl-propyl}-phenyl)-pyrimidin-2-ylamine], for which the values for the IC50 in experiment [1] and in experiment [2] were 0.17 µM and 0.016 µM, respectively.
Regarding `C[C@](c1ccc(-c2cnc(N)nc2)cc1)(c1noc(-c2cnc(N3CCNCC3)cn2)n1)C1CC1` [Example 267, 5-(4-{(S)-1-Cyclopropyl-[5-(3,4,5,6-tetrahydro-2H-[1,2′]bipyrazinyl-5′-yl)-[1,2,4]oxadiazol-3-yl]-ethyl}-phenyl)-pyrimidin-2-ylamine], the values for the IC50 in experiment [1] and in experiment [2] were 0.39 µM and 0.012 µM, respectively.
For `C[C@](c1ccc(-c2ccc(N)nc2)cc1)(c1noc(-c2cnc(N3CCNCC3)cn2)n1)C1CC1` [Example 268, 5-(4-{(S)-1-Cyclopropyl-1-[5-(3,4,5,6-tetrahydro-2H-[1,2′]bipyrazinyl-5′-yl)-[1,2,4]oxadiazol-3-yl]-ethyl}-phenyl)-pyridin-2-ylamine] the same measures were 0.6 µM and 0.0093 µM.
Taken in the same sequence, the figures for `CC(C)C(C)(c1ccc(-c2cnc(N)nc2)cc1)c1noc(N2CCN(C(=O)N(C)C)CC2)n1` (stereo not shown) [Example 269, 4-(3-{1-[4-(2-Amino-pyrimidin-5-yl)-phenyl]-1,2-dimethyl-propyl}-[1,2,4]oxadiazol-5-yl)-piperazine-1-carboxylic acid dimethylamide] were 0.23 µM and 0.024 µM.
On to `COC1CCN(c2nc(C(C)(c3ccc(-c4cnc(N)nc4)cc3)C(C)C)no2)CC1` (stereo not shown) [Example 270, 5-(4-{1-[5-(4-Methoxy-piperidin-1-yl)-[1,2,4]oxadiazol-3-yl]-1,2-dimethyl-propyl}-phenyl)-pyrimidin-2-ylamine], for which the results for the IC50 in experiment [1] and in experiment [2] were 0.096 µM and 0.0098 µM, respectively.
